According to PubChem BioAssay (NCI):
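Protocol summary: plate cells (96-well), add compound at 5 concentrations, incubate 48 h, interpolate endpoints linearly. At the GI50, growth is halved. TGI denotes the concentration required for complete inhibition of growth.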

Legend:
Test in all cases: NCI anticancer screen, dose series, 48 h
COLO 205 colon = system: COLO 205 colon
HL-60(TB) leukemia = system: HL-60(TB) leukemia
HOP-92 NSCLC = system: HOP-92 NSCLC
SF-268 CNS = system: SF-268 CNS
SF-295 CNS = system: SF-295 CNS
SK-MEL-5 melanoma = system: SK-MEL-5 melanoma
SNB-19 CNS = system: SNB-19 CNS
SNB-75 CNS = system: SNB-75 CNS
T-47D breast = system: T-47D breast
UACC-257 melanoma = system: UACC-257 melanoma

Structure (SMILES)	GI50 (COLO 205 colon) [µM]	TGI (COLO 205 colon) [µM]	GI50 (HL-60(TB) leukemia) [µM]	TGI (HL-60(TB) leukemia) [µM]	GI50 (HOP-92 NSCLC) [µM]	TGI (HOP-92 NSCLC) [µM]	GI50 (SF-268 CNS) [µM]	TGI (SF-268 CNS) [µM]	GI50 (SF-295 CNS) [µM]	TGI (SF-295 CNS) [µM]	GI50 (SK-MEL-5 melanoma) [µM]	TGI (SK-MEL-5 melanoma) [µM]	GI50 (SNB-19 CNS) [µM]	TGI (SNB-19 CNS) [µM]	GI50 (SNB-75 CNS) [µM]	TGI (SNB-75 CNS) [µM]	GI50 (T-47D breast) [µM]	TGI (T-47D breast) [µM]	GI50 (UACC-257 melanoma) [µM]	TGI (UACC-257 melanoma) [µM]
O=C(c1ccccc1)c1c(C(F)(F)F)n([O-])c2cc(C(F)(F)F)ccc2[n+]1=O	1.41	3.27	0.55	1.58	1.51	2.95	1.58	3.14	1.57	2.97	1.69	3.24	1.89	3.46	1.63	3.05	1.46	3.38	1.71	3.35
COc1cc(OC)c(OC)cc1/C=C/c1cnnc2ccccc12		> 10		> 10		> 10		> 10		> 10		> 10		> 10		> 10		> 10		> 10
Cn1nc(C(F)(F)F)c(-c2cc(C(F)(F)F)cc(C(F)(F)F)c2)c1-c1ccc(OCc2ccc(Cl)cc2)cc1O	1.7	3.36	2.08	5.57	1.63	5.07	2.65	13	2.31	7.3	1.45	3.11	2.78	14.8	2.17	10.5	1.54	8.4	2.07	6.11
Clc1ccc2nc(CI)c(CI)nc2c1	1.77	3.28	1.23	9.06	3	8.3	4.69	14.3	15.4	36.8	4.59	14.3	33.2	> 59.4	8.87	23.2	2.6	8.28	4.51	16.8
CCCCCCCC/C=C1\CCC(CN2CCOCC2)C1=O (centres undefined)		17.3		14.8		33		21.1		28.2		23.2		24.6		23.5		4.57		21.7
NC(N)=NC(N)=NCCCc1ccco1	> 500	> 500	15.9	48.2	57.5	158	61.5	156	163	> 500	> 500	> 500	> 500	> 500	83.3	245	71.7	319	19.2	101
O=C(/C=C1\C(=O)N(Cc2ccccc2)c2ccccc21)c1ccc(OCCN2CCCCC2)cc1	1.77	3.27	1.71	4.39	1.36	2.77	2.98	10.7	12.7	25.9	12.6	25.4	2.26	5.99	11.8	24.4	1.6	3.4	12.9	25.9
O=C(c1ccco1)c1c(C(F)(F)F)n([O-])c2cc(C(F)(F)F)ccc2[n+]1=O	0.475	2	0.185	0.484	0.252	1.51	0.87	2.66	1.29	2.83	0.683	1.7	1.47	2.99	1.55	2.96	0.355	1.47	1.55	3.27
CC(=O)O[C@H]1C(=O)[C@@]2(C)[C@H]([C@H](OC(=O)c3ccccc3)[C@]3(O)C[C@H](OC(=O)[C@H](OC(=O)OC[C@H]4COC(C)(C)O4)[C@@H](NC(=O)c4ccccc4)c4ccccc4)C(C)=C1C3(C)C)[C@]1(OC(C)=O)CO[C@@H]1C[C@@H]2O	0.0216	> 33.3	0.0168	> 33.3	0.0519	> 33.3	0.165	> 33.3	0.0365	0.314	0.0832	> 33.3	0.0615	> 33.3	0.00333	0.0697	0.0437	> 33.3		> 33.3
Cc1ccc2c(c1)C(=O)c1c-2c(OCCCN(C)C)nc2ccccc12	1.16	3.82	2.31	19.6	2.18	11.6	2.3	12.9	2.87	14.1	4.14	16.3	2.81	15.1	2.22	15.5	7.95	26	3.06	5.82
